The text below walks through data of PubChem BioAssay AID1996.

In brackets after ≈: the same amount, converted by molar mass. A value given as a limit tells only on which side of the number the result lay.

For the data set the following is noted: buffer; pH 7.4; 200.0 µM.
In general, solubility (kinetic) refers to the concentration staying in solution when a stock, usually in DMSO, is diluted into the medium. As to `Cc1ccc(S(=O)(=O)N(C)c2ccc3ccccc3c2)cc1`, the kinetic solubility was determined as 1.6 µg/mL (≈ 5.14 µM).

`O=S(=O)(Nc1ccc(Cl)c(Cl)c1)N1CCOCC1` displayed a kinetic solubility of over 46.7 µg/mL.

`COc1ccc(OCCCC(=O)Nc2nccs2)cc1` yielded a kinetic solubility of over 43.9 µg/mL.

In the case of `Cc1cc(NC(=O)c2ccc([N+](=O)[O-])cc2)n(C)n1`, the kinetic solubility is over 39 µg/mL.

Turning to `Cc1ccc(-n2nc(C(=O)O)cc2-c2ccccc2Cl)cc1`, the solubility (kinetic) was over 46.9 µg/mL.

Regarding `O=C(COc1ccccc1)Nc1ccccc1F`, the kinetic solubility worked out at 32.7 µg/mL (≈ 133 µM).

`O=S1(=O)CCC(NC(=S)Nc2ccc3ccccc3c2)C1` (stereo unspecified) registered a solubility (kinetic) of 15.3 µg/mL (≈ 47.7 µM).

In turn, `Cc1ccccc1C(=O)OCC(=O)NCc1ccco1` showed a solubility (kinetic) of over 41 µg/mL.

As to `CC(=O)c1cccc(NC(=O)C(C)OC(=O)C2=NNC(=O)CC2)c1` (stereo unspecified), the kinetic solubility was over 49.7 µg/mL.

The compound `CCc1ccccc1N1CC(C(=O)Nc2nccs2)CC1=O` (stereo unspecified) registered a kinetic solubility of 45.2 µg/mL (≈ 143 µM).

Turning to `O=C(O)c1ccc2c(c1)C(=O)N(c1cccc3ccccc13)C2=O`, the solubility (kinetic) was over 47.6 µg/mL.

`O=C(NCCCN1CCCC1=O)Nc1cc(Cl)ccc1Cl` had a kinetic solubility of over 49.5 µg/mL.

With `CN1CCCC(OC(=O)c2ccc(C(C)(C)C)cc2)C1.Cl` (stereo unspecified), the kinetic solubility is over 46.8 µg/mL.

On to `CC(NC(=O)C(C)N1C(=O)c2cccc([N+](=O)[O-])c2C1=O)c1ccccc1` (stereo unspecified), for which the kinetic solubility is 28.3 µg/mL (≈ 77 µM).

Regarding `Cc1nc([N+](=O)[O-])cn1CC(=O)c1ccc(OC(F)(F)F)cc1`, the solubility (kinetic) turned out to be 3.3 µg/mL (≈ 10 µM).

`O=S(=O)(Nc1ccc2c(c1)OCO2)c1ccc(F)c(F)c1` had a solubility (kinetic) of over 47 µg/mL.

The compound `CN1CCN(C(=O)c2cccn(Cc3cccc(Cl)c3)c2=O)CC1` gave a solubility (kinetic) of over 51.9 µg/mL.

`CCCN1CCN(CC(=O)Nc2nc3ccccc3s2)CC1` had a solubility (kinetic) of 0.6 µg/mL (≈ 1.88 µM).

Regarding `COc1ccc(/C=N/NC(=O)c2ccncc2)c(C(=O)O)c1OC`, the solubility (kinetic) was over 49.4 µg/mL.

`O=[N+]([O-])c1ccc(OCc2cnc(Cl)s2)cc1` returned a solubility (kinetic) of 5.6 µg/mL (≈ 20.7 µM).

Turning to `CC(C)c1ccc(N=Cc2c(O)c3ccccc3oc2=O)cc1`, the solubility (kinetic) amounted to 4.3 µg/mL (≈ 14 µM).

Compound `O=c1[nH]c(=S)n(C2CC2)c(O)c1C=NCC1CCCO1` (stereo unspecified) came in with a kinetic solubility of over 44.3 µg/mL.

In the case of `COc1ccc(NC2=NC(C)(C)CS2)cc1`, the kinetic solubility was found to be 31.4 µg/mL (≈ 133 µM).

Regarding `CCC(C)C(=O)Nc1ccccc1N1CCN(c2ccc(F)cc2)CC1` (stereo unspecified), the solubility (kinetic) is 2.9 µg/mL (≈ 8.16 µM).

The compound `O=C(/C=C/c1ccccc1)OCC(=O)N1CCCC1` yielded a solubility (kinetic) of over 38.9 µg/mL.

On to `CN(Cc1ccccc1C#N)S(=O)(=O)c1cccs1`, for which the kinetic solubility was 34.8 µg/mL (≈ 119 µM).

The compound `N#CC(C#N)=Cc1ccc(OCC(=O)N2CCOCC2)cc1` registered a solubility (kinetic) of over 44.6 µg/mL.

On to `COc1cccc(NC(=O)c2ccccc2C(F)(F)F)c1`, for which the solubility (kinetic) is over 44.3 µg/mL.

Turning to `O=C(CN1CCCc2ccccc21)Nc1ccccc1[N+](=O)[O-]`, the kinetic solubility is 0.5 µg/mL (≈ 1.61 µM).

`CN(C)C(=O)Oc1ccc2c(c1)O/C(=C\c1ccc(Cl)cc1)C2=O` gave a solubility (kinetic) of 0.9 µg/mL (≈ 2.62 µM).

`COc1ccc(OC)c(NC(=S)Nc2ccccc2)c1`: the kinetic solubility was over 43.3 µg/mL.

Compound `CN(C)CCCN=C(NO)c1ccc(Cl)cc1Cl` yielded a solubility (kinetic) of 40.5 µg/mL (≈ 140 µM).

The compound `CN(c1ccccc1)S(=O)(=O)c1ccc(-c2ccccc2)cc1` returned a solubility (kinetic) of under 0.7 µg/mL.

`O=C(COC(=O)c1cnccn1)c1ccc([N+](=O)[O-])cc1` came in with a kinetic solubility of over 43.1 µg/mL.

The compound `CC1CCC2(CC1)NC(=O)N(CC(=O)NCCc1ccccc1)C2=O` (stereo unspecified) registered a solubility (kinetic) of over 51.5 µg/mL.

With `Cc1ccccc1NC(=O)NCc1cccnc1`, the kinetic solubility is over 36.2 µg/mL.

`COC(=O)c1onc(-c2c(Cl)cccc2Cl)c1C(=O)OC` returned a kinetic solubility of 41.2 µg/mL (≈ 125 µM).

On to `Cc1cc(NC(=O)c2ccc3[nH]c(C)c(C)c3c2)ccn1`, for which the solubility (kinetic) worked out at 37.6 µg/mL (≈ 135 µM).

Take `COc1ccc(CN2C(=O)c3cccc4cccc(c34)C2=O)cc1`: the solubility (kinetic) is 0.9 µg/mL (≈ 2.84 µM).

The compound `CCOc1ccc(OCC)c(S(=O)(=O)n2cc(C)nc2CC)c1` had a kinetic solubility of 10.6 µg/mL (≈ 31.3 µM).

Turning to `O=C(NC1CCCCC1)NC1C2CC3CC(C2)CC1C3` (stereo unspecified), the kinetic solubility came out at 2.3 µg/mL (≈ 8.32 µM).

On to `Cc1cc(-c2ccccc2C(=O)NC2CCCCC2)on1`, for which the solubility (kinetic) came out at 31.8 µg/mL (≈ 112 µM).

The compound `O=S(=O)(NC1C2CC3CC(C2)CC1C3)c1ccc(F)cc1` (stereo unspecified) registered a kinetic solubility of 23 µg/mL (≈ 74.3 µM).

As for `COc1ccccc1CC1CC(=O)N(c2ccccc2)C1=O` (stereo unspecified), the solubility (kinetic) was over 44.3 µg/mL.

`CCOc1ccc(C(C)=O)cc1COC(=O)CNC(=O)C12CC3CC(CC(C3)C1)C2` gave a solubility (kinetic) of 36.7 µg/mL (≈ 88.8 µM).

For `O=C1Nc2ccc3sc4ccccc4c3c2C1=O`, the kinetic solubility is 0.6 µg/mL (≈ 2.37 µM).

Compound `COc1ccc(OC(C)C(=O)N(C)Cc2nc(-c3ccccc3)no2)cc1` (stereo unspecified) showed a solubility (kinetic) of 41 µg/mL (≈ 112 µM).

`COc1ccc(C(=O)CN2C(=O)c3ccccc3C2=O)c(OC)c1`: the solubility (kinetic) was determined as 1.3 µg/mL (≈ 4 µM).

Consider `Cn1c(=O)c2c(ncn2CC(O)CO)n(C)c1=O` (stereo unspecified), for which the solubility (kinetic) is over 38.1 µg/mL.

Regarding `CCOc1ncccc1C(=O)NCCc1c[nH]c2ccccc12`, the solubility (kinetic) was determined as 8.7 µg/mL (≈ 28.1 µM).

Turning to `Cc1occc1C(=O)Nc1c(Cl)cccc1Cl`, the solubility (kinetic) came out at 37.1 µg/mL (≈ 137 µM).
